According to patent publication US20260216133A1, “AEROSOL COMPRISING 5-METHOXY-N,N-DIMETHYLTRYPTAMINE” (GH Research Ireland Limited, priority 2020, published 2026):
Several values for one entry are separate records, joined by “and”; a condition that tells them apart may be missing. Equal entries are not always repeated.

How the values were obtained:
[1] = Aerosol particle formation rate (aerosolized dose/aerosolization time); format: physicochemical; conditions: aerosolization time 15 seconds
Method: The aerosol particle formation rate can be calculated as follows: Aerosol particle formation rate=Aerosolized dose/Aerosolization time. For the aerosolized dose data and the aerosolization time of 15 seconds from Example 2, the following aerosol particle formation rate was determined: […]

[2] = Aerosol 5-MeO-DMT mass density (aerosolized dose/aerosol volume); format: physicochemical; conditions: aerosol volume about 3 liters
Method: The aerosol 5-MeO-DMT mass density can be calculated as follows: Aerosol 5-MeO-DMT mass density =Aerosolized dose/Aerosol volume. For the aerosolized dose data and the aerosol volume of about 3 liters from Example 2, the following aerosol 5-MeO-DMT mass density was determined: […]

[3] = Particle size distribution of 5-MeO-DMT aerosol, Next Generation Impactor (NGI); format: physicochemical
Method: The particle size distribution of 5-MeO-DMT aerosol particles as generated according to the compositions and methods of the present invention are determined according to United States Pharmacopeia (USP) methods using the Next Generation Impactor (NGI) (United States Pharmacopeia (USP)<601> Apparatus 6) as shown in FIG. 2.
This device fractionates the bolus aerosol delivered into a discrete series of size ranges on the basis of particle or droplet inertia and provides a measure of the aerodynamic diameter of the aerosol droplets produced. The droplet size range captured by each stage in the NGI can be dependent on the measured airflow used. For the present analysis, experiments are carried out using an airflow of 30 liters/minute (Experiments 1 and 3) and of 15 liters/minute (Experiments 2 and 4).
Based on a log-normal distribution of particle sizes, the aerodynamic size distribution is characterized by the mass median aerodynamic diameter (MMAD) and geometric standard deviation (GSD). Moreover, the fine particle fraction (FPF) is determined as the weight percentage of droplets having an aerodynamic diameter of less than or equal to 5 μm, relative to the total of droplets on the impactor.
A first experiment is carried out using a Volcano Medic Vaporization System as described in Example 1 with dosing capsules having a nominal drug load of 6 mg 5-MeO-DMT free base/capsule. The aerosol recovered in the balloon is measured using the NGI operated using a flow rate of 30 liters/min.
A second experiment is carried also out using a Volcano Medic Vaporization System as described in Example 1 with dosing capsules having a nominal drug load of 6 mg 5-MeO-DMT free base/capsule. The aerosol recovered in the balloon is measured using the NGI operated using a flow rate of 15 liters/min.
In this experiment, NGI cups were coated with glycerol to prevent possible droplet re-entrainment. In addition, approximately 8 drops of 30% glycerol in water were added to each filter paper located underneath the corresponding NGI Stage Jets.

[4] = Degradation products of 5-MeO-DMT aerosol by HPLC after SPE extraction; conditions: 18 mg capsule, 210° C. aerosolization, Replicate 1, Extract 1; including the additional amount of Impurity 1
[5] = Aerosolization of 5-MeO-DMT from dosing capsules (Volcano Medic), aerosolized dose by weighing; conditions: triplicate capsules; for Aerosolized dose: 210° C., 12 l/min, 15 seconds
[6] = Experiment 1: 6 mg/capsule, NGI 30 liters/min, mean of 3 runs
[7] = Experiment 1: 6 mg/capsule, NGI 30 liters/min, single runs
[8] = Experiment 2: 6 mg/capsule, NGI 15 liters/min, Mean (Runs 1-3)
[9] = Experiment 2: 6 mg/capsule, NGI 15 liters/min, Mean (Runs 2, 3)
[10] = Experiment 3: 18 mg/capsule, NGI 30 liters/min, mean of 3 runs
[11] = Experiment 3: 18 mg/capsule, NGI 30 liters/min, single runs
[12] = Experiment 4: 18 mg/capsule, NGI 15 liters/min, glycerol-coated cups, single runs
[13] = Experiment 4: 18 mg/capsule, NGI 15 liters/min, mean of 3 runs

With `COc1ccc2[nH]cc(CCN(C)C)c2c1` [5-MeO-DMT, 5-methoxy-N,N-dimethyltryptamine] the “Aerosol particle formation rate” value ([1]; target dosage 2 mg) was 0.12 mg/s, the “Aerosol particle formation rate” value ([1]; target dosage 18 mg) was 1.09 mg/s and 1.08 mg/s and the “Aerosol 5-MeO-DMT mass density” value ([2]; target dosage 2 mg) was 0.62 mg/L. The “Aerosol 5-MeO-DMT mass density” value ([2]; target dosage 18 mg) was 5.45 mg/L and 5.38 mg/L and 5.43 mg/L, the FPF [3, 6] was 97.95% and the GSD [3, 6] was 3.49. The MMAD [3, 6] was 0.40 μm, the GSD [3, 7] was 4.70 and 3.05 and 2.71 and the MMAD [3, 7] was 0.33 μm and 0.46 μm and 0.42 μm. For the same molecule, the FPF ([3]; Experiment 1: 6 mg/capsule, NGI 30 liters/min, single runs, droplets <= 5 μm) was 96.19% and 98.35% and 99.31%, the FPF [3, 8] was 94.85% and the GSD [3, 8] was 4.63. The MMAD [3, 8] was 0.57 μm, the FPF [3, 9] was 94.67% and the GSD [3, 9] was 3.20. The MMAD [3, 9] was 0.77 μm, the FPF ([3]; Experiment 2: 6 mg/capsule, NGI 15 liters/min, glycerol-coated cups, single runs, Run 1 may not be reliable) was 95.22% and 93.54% and 95.79% and the FPF [3, 10] was 94.64%. The GSD [3, 10] was 2.65, the MMAD [3, 10] was 1.05 μm and the FPF [3, 11] was 93.13% and 94.08% and 96.72%. For the same molecule, the GSD [3, 11] was 2.98 and 2.52 and 2.44, the MMAD [3, 11] was 0.98 μm and 1.19 μm and 0.97 μm and the FPF [3, 12] was 93.23% and 92.66% and 91.40%. For the same molecule, the GSD [3, 12] was 2.66 and 2.77 and 2.10, the MMAD [3, 12] was 1.16 μm and 1.14 μm and 1.82 μm and the FPF [3, 13] was 92.43%. For the same molecule, the GSD [3, 13] was 2.51, the MMAD [3, 13] was 1.37 μm and the “total percentage of 5-MeO-DMT degradation products in the aerosol” value [4] was 0.19%. The “Aerosolized dose, % of loaded dose” value ([5]; target dosage 2 mg) was 100.5% and 99.5%, the Aerosolized dose ([5]; target dosage 2 mg) was 1.9 mg and the “Aerosolized dose, % of loaded dose” value ([5]; target dosage 18 mg) was 96.3% and 96.5% and 95.9%. The Aerosolized dose ([5]; target dosage 18 mg) was 16.3 mg and 16.2 mg.
